Results taken from patent publication US12612412B2, “Antiviral heterocyclic compounds” (Enanta Pharmaceuticals, Inc., priority 2021, dated 2026).
Where two headings read alike, the source gives them in different places.

Tests used:
[1] = test system: genotype A, "Long" strain RSV; experiment: RSV-A assay (CPE protection in Hep-2 cells, ATPlite readout); assay type: cell-based, Human respiratory syncytial virus (HRSV); conditions: genotype A “Long” strain RSV, MOI 0.1, CPE protection, read-out: Human RSV-A (“Long”)
In short: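 Protection from RSV-induced cytopathic effect measured by ATP content (ATPlite) after 5-day culture. Infection used genotype A Long virus at MOI 0.1 on 8,000 Hep-2 cells per well, with compound serially diluted 2-fold; values are EC50.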

[2] = test system: recombinant HMPV CAN97-83 containing eGFP (MPV-GFP1); experiment: HMPV antiviral assay Method-A (MPV-GFP1 eGFP fluorescence in Vero E6 cells); assay type: cell-based, Human metapneumovirus (HMPV); conditions: read-out: HMPV EC50
In short: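 Vero E6 cells in serum-free OptiMEM with 0.5 μg/mL TPCK-trypsin were infected with eGFP-expressing HMPV CAN97-83 at MOI 0.05, with 8-point twofold dilutions from 8 or 2 μM (0.5% DMSO). After 5 days at 32° C, eGFP fluorescence gave % inhibition versus infected untreated wells. EC50 came from four-parameter logistic fits.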

[3] = human respiratory syncytial virus
[4] = human metapneumovirus, Vero C1008, 120 h

Compound	EC50 [1, 3]	EC50 [2, 4]	EC50 [1]	EC50 ([2]; Method-A, MPV-GFP1 in Vero E6 cells, eGFP fluorescence after 5 days)
[2H]C([2H])([2H])c1cc2cc(C(=O)NC[C@](O)(c3cc4c(c(-c5ccc(F)cc5)n3)OC[C@]4(C)C(N)=O)C(F)(F)F)cc(OC)c2nc1C [Example 143]	< 200 nM	< 500 nM	–	–
COc1cc(C(=O)NC[C@](O)(c2cc3c(c(-c4ccc(F)cc4)n2)OC[C@]3(C)C(N)=O)C(F)(F)F)cc2cc(CF)c(C)nc12 [Example 147]	< 200 nM	< 500 nM	–	–
COc1cc(C(=O)NC[C@](O)(c2cc3c(c(-c4ccc(F)cc4)n2)OC[C@]3(C)C(N)=O)C(F)(F)F)cc2cc(C(F)F)c(C)nc12 [Example 148]	< 200 nM	< 500 nM	–	–
COc1cc(C(=O)NC[C@](O)(c2cc3c(c(-c4ccc(F)cc4)n2)OC[C@]3(C)C(N)=O)C(F)(F)F)ccc1OC[C@@H](C)OP(=O)(O)O [Example 149]	< 200 nM	> 500 nM	–	–
C[C@]1(C(N)=O)COc2c1cc([C@@](O)(CNC(=O)c1ccc3nc(NC(=O)CN)sc3c1)C(F)(F)F)nc2-c1ccc(F)cc1 [Example 152]	< 200 nM	> 500 nM	–	–
C[C@H](N)C(=O)Nc1nc2ccc(C(=O)NC[C@](O)(c3cc4c(c(-c5ccc(F)cc5)n3)OC[C@]4(C)C(N)=O)C(F)(F)F)cc2s1 [Example 153]	< 200 nM	> 500 nM	–	–
C[C@@H](N)C(=O)Nc1nc2ccc(C(=O)NC[C@](O)(c3cc4c(c(-c5ccc(F)cc5)n3)OC[C@]4(C)C(N)=O)C(F)(F)F)cc2s1 [Example 154]	< 200 nM	> 500 nM	–	–
CC(C)[C@H](N)C(=O)Nc1nc2ccc(C(=O)NC[C@](O)(c3cc4c(c(-c5ccc(F)cc5)n3)OC[C@]4(C)C(N)=O)C(F)(F)F)cc2s1 [Example 155]	< 200 nM	> 500 nM	–	–
CC(C)[C@@H](N)C(=O)Nc1nc2ccc(C(=O)NC[C@](O)(c3cc4c(c(-c5ccc(F)cc5)n3)OC[C@]4(C)C(N)=O)C(F)(F)F)cc2s1 [Example 156]	< 200 nM	> 500 nM	–	–
C[C@@H](N)C(=O)Nc1nc2ccc(C(=O)NC[C@](O)(c3cc4c(c(-c5ccc(F)cc5)n3)OC[C@]4(C)C(N)=O)C(F)(F)F)cc2s1 [Example 158]	–	–	< 200 nM	> 500 nM
C[C@]1(C(N)=O)COc2c1cc([C@@](O)(CNC(=O)c1ccc3nc(NC(=O)[C@@H]4CCCN4)sc3c1)C(F)(F)F)nc2-c1ccc(F)cc1 [Example 160]	< 200 nM	> 500 nM	–	–
C[C@]1(C(N)=O)COc2c1cc([C@@](O)(CNC(=O)c1ccc3nc(CO)sc3c1)C(F)(F)F)nc2-c1ccc(F)cc1 [Example 161]	< 200 nM	> 500 nM	–	–
C[C@]1(C(N)=O)COc2c1cc([C@@](O)(CNC(=O)c1ccc3nc(NCCN)sc3c1)C(F)(F)F)nc2-c1ccc(F)cc1 [Example 165]	< 200 nM	> 500 nM	–	–
COc1cc(C(=O)NC[C@](O)(c2cc3c(c(-c4ccc(F)cc4)n2)OC[C@]3(C)C(N)=O)C(F)(F)F)cc2cc(C3CC3)c(CO)nc12 [Example 166]	< 200 nM	> 500 nM	–	–
COc1cc(C(=O)NC[C@](O)(c2cc3c(c(-c4ccc(F)cc4)n2)OC[C@]3(CO)C(N)=O)C(F)(F)F)cc2cc(C)c(C)nc12 [Example 167]	< 200 nM	> 500 nM	–	–
CCn1cc2cc(C(=O)NC[C@](O)(c3cc4c(c(-c5ccc(F)cc5)n3)OC[C@]4(C)C(N)=O)C(F)(F)F)ccc2n1 [Example 168]	< 200 nM	< 500 nM	–	–
CC(C)n1cc2cc(C(=O)NC[C@](O)(c3cc4c(c(-c5ccc(F)cc5)n3)OC[C@]4(C)C(N)=O)C(F)(F)F)ccc2n1 [Example 169]	< 200 nM	> 500 nM	–	–
C[C@]1(C(N)=O)COc2c1cc([C@@](O)(CNC(=O)c1ccc3nn(C4CC4)cc3c1)C(F)(F)F)nc2-c1ccc(F)cc1 [Example 170]	< 200 nM	< 500 nM	–	–
CCc1cc2cc(C(=O)NC[C@](O)(c3cc4c(c(-c5ccc(F)cc5)n3)OC[C@]4(C)C(N)=O)C(F)(F)F)cc(OC)c2nc1C [Example 174]	< 200 nM	> 500 nM	–	–
Cc1cc2cc(C(=O)NC[C@](O)(c3cc4c(c(-c5ccc(F)cc5)n3)OC[C@]4(C)C(N)=O)C(F)(F)F)cc(Cl)c2nc1C [Example 177]	< 200 nM	< 500 nM	–	–
Cc1cc2cc(C(=O)NC[C@](O)(c3cc4c(c(-c5ccc(F)cc5)n3)OC[C@]4(C)C(N)=O)C(F)(F)F)cc(OC3CC3)c2nc1C [Example 178]	< 200 nM	> 500 nM	–	–
Cc1cc2cc(C(=O)NC[C@](O)(c3cc4c(c(-c5ccc(F)cc5)n3)OC[C@]4(C)C(N)=O)C(F)(F)F)cc(OC(F)(F)F)c2nc1C [Example 179]	< 200 nM	> 500 nM	–	–
Cc1cc2cc(C(=O)NC[C@](O)(c3cc4c(c(-c5ccc(F)c(Cl)c5)n3)OC[C@]4(C)C(N)=O)C(F)(F)F)cc(Cl)c2nc1C [Example 182]	< 200 nM	< 500 nM	–	–

Compound	EC50 [1, 3]	EC50 [2, 4]	EC50 [1]	EC50 ([2]; Method-A, MPV-GFP1 in Vero E6 cells, eGFP fluorescence after 5 days)
Cc1cc2cc(C(=O)NC[C@](O)(c3cc4c(c(-c5ccc(F)c(Cl)c5)n3)OC[C@]4(C)C(N)=O)C(F)(F)F)cc(OC(F)(F)F)c2nc1C [Example 184]	< 200 nM	> 500 nM	–	–
C[C@]1(C(N)=O)COc2c1cc([C@@](O)(CNC(=O)c1cc(Cl)c3[nH]ccc3c1)C(F)(F)F)nc2-c1ccc(F)cc1 [Example 199]	< 200 nM	> 500 nM	–	–
COc1cc(C(=O)NC[C@](O)(c2cc3c(c(-c4ccc(F)cc4)n2)OC[C@]3(C)C(N)=O)C(F)(F)F)cc2cc[nH]c12 [Example 200]	< 200 nM	> 500 nM	–	–
COC(=O)Nc1cc(C(=O)NC[C@](O)(c2cc3c(c(-c4ccc(F)cc4)n2)OC[C@]3(C)C(N)=O)C(F)(F)F)cc2cc(C)cnc12 [Example 210]	< 200 nM	< 500 nM	–	–
COc1cc(C(=O)NC[C@](O)(c2cc3c(c(-c4ccc(F)cc4)n2)OC[C@]3(C)C(N)=O)C(F)(F)F)cn2cc(C3CC3)nc12 [Example 217]	< 200 nM	< 500 nM	–	–
C[C@]1(C(N)=O)COc2c1cc([C@@](O)(CNC(=O)c1cc(NC(=O)NC3CC3)c3ncc(Cl)cc3c1)C(F)(F)F)nc2-c1ccc(F)cc1 [Example 218]	< 200 nM	< 500 nM	–	–
Cc1cnc2c(NC(=O)NC3CC3)cc(C(=O)NC[C@](O)(c3cc4c(c(-c5ccc(F)c(Cl)c5)n3)OC[C@]4(C)C(N)=O)C(F)(F)F)cc2c1 [Example 219]	< 200 nM	< 500 nM	–	–
C[C@]1(C(N)=O)COc2c1cc([C@@](O)(CNC(=O)c1cc(NC(=O)NC3CC3)c3ncc(Cl)cc3c1)C(F)(F)F)nc2-c1ccc(F)c(Cl)c1 [Example 220]	< 200 nM	> 500 nM	–	–
Cc1cnc2c(NC(=O)N3CCC3)cc(C(=O)NC[C@](O)(c3cc4c(c(-c5ccc(F)cc5)n3)OC[C@]4(C)C(N)=O)C(F)(F)F)cc2c1 [Example 221]	< 200 nM	> 500 nM	–	–
C[C@]1(C(N)=O)COc2c1cc([C@@](O)(CNC(=O)c1cc(NC(=O)N3CCC3)c3ncc(Cl)cc3c1)C(F)(F)F)nc2-c1ccc(F)cc1 [Example 222]	< 200 nM	> 500 nM	–	–
Cc1cnc2c(NC(N)=O)cc(C(=O)NC[C@](O)(c3cc4c(c(-c5ccc(F)cc5)n3)OC[C@]4(C)C(N)=O)C(F)(F)F)cc2c1 [Example 223]	< 200 nM	> 500 nM	–	–
C[C@]1(C(N)=O)COc2c1cc([C@@](O)(CNC(=O)c1cc(NC(N)=O)c3ncc(Cl)cc3c1)C(F)(F)F)nc2-c1ccc(F)cc1 [Example 224]	< 200 nM	> 500 nM	–	–
Cc1cnc2c(NC(=O)N3CCCC3)cc(C(=O)NC[C@](O)(c3cc4c(c(-c5ccc(F)cc5)n3)OC[C@]4(C)C(N)=O)C(F)(F)F)cc2c1 [Example 226]	< 200 nM	> 500 nM	–	–
CC[C@]1(C(N)=O)COc2c1cc([C@@](O)(CNC(=O)c1cc(OC)c3nn(C(F)F)cc3c1)C(F)(F)F)nc2-c1ccc(F)cc1 [Example 234]	< 200 nM	< 500 nM	–	–
CC[C@]1(C(N)=O)COc2c1cc([C@@](O)(CNC(=O)c1cc(OC3CC3)c3ncccc3c1)C(F)(F)F)nc2-c1ccc(F)cc1 [Example 235]	< 200 nM	< 500 nM	–	–
NC(=O)[C@@]1(C2CC2)COc2c1cc([C@@](O)(CNC(=O)c1cc(F)c3nc(N)sc3c1)C(F)(F)F)nc2-c1ccc(F)cc1 [Example 263]	< 200 nM	< 500 nM	–	–
COc1cc(C(=O)NC[C@](O)(c2cc3c(c(-c4ccc(F)cc4)n2)OC[C@@]3(C(N)=O)C2CC2)C(F)(F)F)cc2cc(C(F)(F)F)cnc12 [Example 265]	< 200 nM	< 500 nM	–	–
COc1cc(C(=O)NC[C@](O)(c2cc3c(c(-c4ccc(F)cc4)n2)OC[C@@]3(C(N)=O)C2CC2)C(F)(F)F)cc2cn(C(F)F)nc12 [Example 267]	< 200 nM	< 500 nM	–	–
COc1cc(C(=O)NC[C@](O)(c2cc3c(c(-c4ccc(F)cc4)n2)OC[C@@]3(C(N)=O)C2CC2)C(F)(F)F)cc2cccnc12 [Example 268]	< 200 nM	> 500 nM	–	–
NC(=O)[C@@]1(C2CC2)COc2c1cc([C@@](O)(CNC(=O)c1cc(OC3CC3)c3ncccc3c1)C(F)(F)F)nc2-c1ccc(F)cc1 [Example 270]	< 200 nM	< 500 nM	–	–
COc1cc(C(=O)NC[C@](O)(c2cc3c(c(-c4ccc(F)cc4)n2)OC[C@@]3(C(N)=O)C2CC2)C(F)(F)F)cc2cn(C3CC3)nc12 [Example 280]	< 200 nM	< 500 nM	–	–
COc1cc(C(=O)NC[C@](O)(c2cc3c(c(-c4ccc(Cl)c(F)c4)n2)OC[C@]3(C)C(N)=O)C(F)(F)F)cc2cn(C(F)F)nc12 [Example 300]	< 200 nM	< 500 nM	–	–
